The results in this text go back to patent US11766434B2, “Pyrimidinone derivatives as CDC7 inhibitors” (Cancer Research Technology Limited, priority 2016, dated 2023).

The target of assay [1] is T1, Cdc7 (Homo sapiens, UniProt O00311). Briefly: Cdc7 cell pharmacodynamics assay Method 1: pS53MCM2 levels in HCT116 cells. Type of assay: cell-based. Also noted: endogenous in cells. The settings on record: 6 hours treatment, read-out: Biomarker Method 1 (pEC50) (converted). The method, boiled down: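 HCT116 cells (wild-type p53), 20,000/well, treated with compound for 6 h at 37 °C. Lysates captured on total-MCM2 antibody plates, then probed with anti-pMCM2 Ser53 and HRP secondary; chemiluminescent sandwich ELISA readout of pS53MCM2 levels.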

The target of assay [2] is T1, Cdc7. The assay can be described thus: Cdc7 cell pharmacodynamics assay Method 3: pS53MCM2 levels in SW48 cells. It is filed as cell-based. More on the design: endogenous in cells; host or cells: SW48. The conditions noted are these: 6 hours treatment, read-out: Biomarker Method 3 (pEC50) (converted). The essentials: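 SW48 cells (30,000/well) settled overnight, then compound-treated 6 h at 37 °C. Lysates captured on total-MCM2 antibody plates overnight at 4 °C; pMCM2 Ser53 detected with rabbit antibody plus HRP anti-rabbit and chemiluminescent substrate, luminescence read.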

The structures appear in SMILES notation.

T1 sequence (O00311 whole entry): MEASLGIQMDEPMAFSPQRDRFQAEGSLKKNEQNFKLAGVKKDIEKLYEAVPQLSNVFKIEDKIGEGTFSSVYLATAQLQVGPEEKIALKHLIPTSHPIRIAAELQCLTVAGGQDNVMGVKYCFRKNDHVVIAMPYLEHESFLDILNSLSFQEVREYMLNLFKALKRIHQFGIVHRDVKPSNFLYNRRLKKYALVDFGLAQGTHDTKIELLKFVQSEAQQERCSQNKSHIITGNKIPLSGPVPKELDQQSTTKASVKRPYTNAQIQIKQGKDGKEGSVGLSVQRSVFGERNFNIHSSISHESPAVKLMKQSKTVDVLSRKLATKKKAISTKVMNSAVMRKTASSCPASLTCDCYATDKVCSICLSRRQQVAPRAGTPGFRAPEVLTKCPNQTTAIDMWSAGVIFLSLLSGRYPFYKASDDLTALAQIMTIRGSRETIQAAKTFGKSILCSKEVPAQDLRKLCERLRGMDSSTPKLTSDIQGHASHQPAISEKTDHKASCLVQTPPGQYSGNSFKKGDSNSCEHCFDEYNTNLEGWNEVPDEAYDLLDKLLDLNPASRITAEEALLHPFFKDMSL
T1 sequence (Q9UBU7 whole entry partner): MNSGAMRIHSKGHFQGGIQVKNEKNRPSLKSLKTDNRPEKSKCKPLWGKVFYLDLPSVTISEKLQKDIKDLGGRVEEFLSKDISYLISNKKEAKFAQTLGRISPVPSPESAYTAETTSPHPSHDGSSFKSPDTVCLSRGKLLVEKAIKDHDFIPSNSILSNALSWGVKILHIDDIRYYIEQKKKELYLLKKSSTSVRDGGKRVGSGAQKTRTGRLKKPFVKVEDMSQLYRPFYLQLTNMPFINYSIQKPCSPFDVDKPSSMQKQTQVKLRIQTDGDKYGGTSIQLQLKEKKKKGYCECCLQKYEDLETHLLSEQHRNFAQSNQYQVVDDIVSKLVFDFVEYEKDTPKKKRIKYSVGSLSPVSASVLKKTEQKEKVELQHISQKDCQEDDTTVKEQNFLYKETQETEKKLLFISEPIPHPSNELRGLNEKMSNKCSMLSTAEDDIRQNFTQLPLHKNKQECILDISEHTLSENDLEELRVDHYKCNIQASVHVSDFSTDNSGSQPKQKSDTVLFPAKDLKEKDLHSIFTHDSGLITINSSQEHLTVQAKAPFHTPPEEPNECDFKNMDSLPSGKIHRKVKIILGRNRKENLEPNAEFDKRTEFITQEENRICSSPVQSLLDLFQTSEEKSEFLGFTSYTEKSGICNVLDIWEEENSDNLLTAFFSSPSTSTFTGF

Take `O=c1[nH]c(-c2scnc2Cl)nc(C2CCOCC2)c1Cl` [Compound 4, 5-chloro-2-(4-chlorothiazol-5-yl)-4-tetrahydropyran-4-yl-1H-pyrimidin-6-one]: the EC50 was 45.7 nM on Cdc7 [1] and 1480 nM at Cdc7 [2].

Consider `Cc1ncsc1-c1nc(C2CCOCC2)c(Cl)c(=O)[nH]1` [Compound 6, 5-chloro-2-(4-methylthiazol-5-yl)-4-tetrahydropyran-4-yl-1H-pyrimidin-6-one], for which the EC50 on Cdc7 [1] was 107 nM; on Cdc7 [2] it was 2090 nM.

As for `O=c1[nH]c(-c2scnc2C(F)(F)F)nc(C2CCOCC2)c1Cl` [Compound 14, 5-chloro-4-tetrahydropyran-4-yl-2-[4-(trifluoromethyl)thiazol-5-yl]-1H-pyrimidin-6-one], the values for the EC50 at Cdc7 [1] and at Cdc7 [2] were 158 nM and 2450 nM, respectively.

In the case of `O=c1[nH]c(-c2cn[nH]c2C(F)(F)F)nc(C2CCOCC2)c1Cl` [Compound 17, 5-chloro-4-tetrahydropyran-4-yl-2-[5-(trifluoromethyl)-1H-pyrazol-4-yl]-1H-pyrimidin-6-one], at Cdc7 [1], the EC50 was 112 nM.

Regarding `Cc1ncsc1-c1nc(N2CCN[C@@H](C(F)(F)F)C2)c(Cl)c(=O)[nH]1` [Compound 28, 5-chloro-2-(4-methylthiazol-5-yl)-4-[(3R)-3-(trifluoromethyl)piperazin-1-yl]-1H-pyrimidin-6-one], the EC50 on Cdc7 [1] is 45.7 nM; at Cdc7 [2], 1100 nM.

Take `C[C@@H]1COCCN1c1nc(-c2cn[nH]c2C(F)(F)F)[nH]c(=O)c1Cl` [Compound 41, 5-chloro-4-[(3R)-3-methylmorpholin-4-yl]-2-[5-(trifluoromethyl)-1H-pyrazol-4-yl]-1H-pyrimidin-6-one]: the EC50 on Cdc7 [2] is 316 nM.

For `C[C@@H]1CNCCN1c1nc(-c2cn[nH]c2Cl)[nH]c(=O)c1Cl` [Compound 43, 5-chloro-2-(5-chloro-1H-pyrazol-4-yl)-4-[(2R)-2-methylpiperazin-1-yl]-1H-pyrimidin-6-one], the EC50 on Cdc7 [2] is 347 nM.

Consider `C[C@@H]1CNCCN1c1nc(-c2cn[nH]c2C(F)(F)F)[nH]c(=O)c1Cl` [Compound 44, 5-chloro-4-[(2R)-2-methylpiperazin-1-yl]-2-[5-(trifluoromethyl)-1H-pyrazol-4-yl]-1H-pyrimidin-6-one], for which, on Cdc7 [2], the EC50 was 724 nM.
